Legend:
[1] = single dose 150 mg/kg (Lerner and Harrison); cited from earlier work
[2] = murine 5-FU chemoprotection model; details: 150 mg/kg intraperitoneally
Method: Administration of a second dose of 5-FU (also at 150 mg/kg) 3-7 days after the initial dose killed those stem cells and progenitors recruited into S-phase in response to the first treatment of 5-FU (Lerner and Harrison, supra).
Since FRIL and cytokines act on progenitors in the same concentration range (ng/ml), this pretreatment dose regimen was used to test whether Dl-FRIL can protect mice from 5-FU administered at 2 intervals in the first week: 5-FU (150 mg/kg) was injected at day 0 and then a second dose (also at 150 mg/kg) was injected either on day 3 (d0/3 dose interval) or day 5 (d0/5 dose interval).
Weight-matched BALB/c mice (10 mice/group) were injected intravenously with either with 0.2 mL of Dl-FRIL (500 mg/mL) or 0.2 mL of HBSS daily for 4 days. Two hours after the final treatment of Dl-FRIL, mice were injected intraperitoneally with 5-FU (150 mg/kg). Groups of mice received a second dose of 5-FU (150 mg/kg) at either day 3 or day 5.

Dl-FRIL = target: T1, Dl-FRIL (Lablab purpureus, UniProt Q9ZTA9); details: Mo et al., Glycobiology 1999; cited from earlier work
T1 sequence (Q9ZTA9 9-272): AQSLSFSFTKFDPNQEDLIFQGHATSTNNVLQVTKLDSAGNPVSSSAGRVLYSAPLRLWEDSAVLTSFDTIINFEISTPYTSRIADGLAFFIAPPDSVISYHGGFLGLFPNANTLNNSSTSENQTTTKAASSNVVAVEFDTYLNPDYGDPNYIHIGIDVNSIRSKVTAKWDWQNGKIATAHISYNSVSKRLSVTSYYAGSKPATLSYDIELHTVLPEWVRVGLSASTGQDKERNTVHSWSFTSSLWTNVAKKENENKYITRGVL
T1 sequence (Q9ZTA9 125-272 limits assumed): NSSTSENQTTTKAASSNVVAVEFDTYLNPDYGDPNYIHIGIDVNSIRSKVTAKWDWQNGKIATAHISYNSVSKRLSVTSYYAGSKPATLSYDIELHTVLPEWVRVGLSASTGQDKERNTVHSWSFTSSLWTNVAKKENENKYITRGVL

untransfected 3T3 cells = experiment: untransfected parent 3T3 control cells (XTT); type: cell-based; details: Example 5 serum-free conditions
Method: Specifically, 3T3 cells cultured in tissue culture plates (Becton Dickinson Labware, Lincoln Park, N.J.) were removed from the plates by washing cells twice in Hank's buffered saline solution (HBSS; Gibco Laboratories, Grand Island, N.Y.). Non-enzymatic cell dissociation buffer (Gibco) was added for 15 minutes at room temperature. The resulting cells were washed in medium. FLT3 3T3 cells were cultured at a final concentration of 3,000 cells per well in a volume of 100 μL of serum-defined medium containing […] rhIL1-α, 10% AIMV (Gibco, Grand Island, N.Y.) and 90% Dulbecco's modification of Eagle's medium (DMEM; Gibco) in 96 well plates. […] Proliferation and cell survival was quantitated by addition of XTT (2, 3-bis[Methoxy-4-nitro-5sulfophenyl]-2H-tetrazolium-5 carboxanilide inner salt) (Diagnostic Chemicals Ltd, Charlottetown, Prince Edward Island, Canada), which is a […] cleaved by actively respiring cells (Roehm et al., J. Immunol. Methods 142: 257-265, 1991). Proliferation and cell survival was quantitated spectrophotometrically using a Vmax kinetic plate reader (Molecular Devices Corp., Mountain View, Calif.), and recorded as either relative activity (units/mL) or as specific activity (units/mg). One unit of biological activity was defined as the reciprocal dilution at which half-maximal stimulation of cells is detected. […]

[3] = target: T2, murine extracellular domain of the Flt3 receptor fused to the transmembrane and intracellular domains of the human Fms (UniProt P07333+Q00342, A795S/A899S/C564L/C654D/C793H/C831G/D601N/D652H/D673E/D898N/DEL545-556/DEL576-597/DEL711-780/E609N/E612Q/E649S/E789R/E803A/E806A/E865D/F571P/F692T/F788L/F807S/G637D/G866C/H565Y/H671Q/H824N/I560L/I563L/I633L/I640L/I867V/I870V/INS558VACMSIMALLLL/INS573QVRWKII/INS599GNSYTFIDPTQLP/INS709AMLGPSLSPGQDPEGGVDYKNIHLEKKYVRRDSGFSSQGVDTYVEMRPVSTSSNDSFSEQDLD/K569Q/K650T/K800Q/K826H/K871Q/L602E/L684H/L690V/L783G/L815V/L840M/L863I/M626V/M665I/N627E/N784R/N900K/P896L/Q570K/Q641K/R572K/R624K/R708A/R848K/S619A/S634G/S639V/S653A/S685G/S706R/S809N/S841N/S844N/T636E/T667S/T787E/V561L/V616T/V638A/V785P/V811I/V822L/V828A/V846I/V889L/Y631F/Y689L/Y703F/Y796S); experiment: mFlt3/Fms 3T3 biological screening assay (XTT); type: cell-based
T2 construct: consisting of the murine extracellular domain of the Flt3 receptor fused to the transmembrane and intracellular domains of the human Fms; expressed in transfected cells; host or cells: NIH 3T3 (mFlt3/Fms 3T3 cell line, provided by Dr. Ihor Lemischka)
T2 sequence (Q00342+P07333 with tags, fused parts or gaps Q00342:DEL545-556/Q00342:INS558VACMSIMALLLL/Q00342:I560L/Q00342:V561L/Q00342:I563L/Q00342:C564L/Q00342:H565Y/Q00342:K569Q/Q00342:Q570K/Q00342:F571P/Q00342:R572K/Q00342:INS573QVRWKII/Q00342:DEL576-597/Q00342:INS599GNSYTFIDPTQLP/Q00342:D601N/Q00342:L602E/Q00342:E609N/Q00342:E612Q/Q00342:V616T/Q00342:S619A/Q00342:R624K/Q00342:M626V/Q00342:N627E/Q00342:Y631F/Q00342:I633L/Q00342:S634G/Q00342:T636E/Q00342:G637D/Q00342:V638A/Q00342:S639V/Q00342:I640L/Q00342:Q641K/Q00342:E649S/Q00342:K650T/Q00342:D652H/Q00342:S653A/Q00342:C654D/Q00342:M665I/Q00342:T667S/Q00342:H671Q/Q00342:D673E/Q00342:L684H/Q00342:S685G/Q00342:Y689L/Q00342:L690V/Q00342:F692T/Q00342:Y703F/Q00342:S706R/Q00342:R708A/Q00342:INS709AMLGPSLSPGQDPEGGVDYKNIHLEKKYVRRDSGFSSQGVDTYVEMRPVSTSSNDSFSEQDLD/Q00342:DEL711-780/Q00342:L783G/Q00342:N784R/Q00342:V785P/Q00342:T787E/Q00342:F788L/Q00342:E789R/Q00342:C793H/Q00342:A795S/Q00342:Y796S/Q00342:K800Q/Q00342:E803A/Q00342:E806A/Q00342:F807S/Q00342:S809N/Q00342:V811I/Q00342:L815V/Q00342:V822L/Q00342:H824N/Q00342:K826H/Q00342:V828A/Q00342:C831G/Q00342:L840M/Q00342:S841N/Q00342:S844N/Q00342:V846I/Q00342:R848K/Q00342:L863I/Q00342:E865D/Q00342:G866C/Q00342:I867V/Q00342:I870V/Q00342:K871Q/Q00342:V889L/Q00342:P896L/Q00342:D898N/Q00342:A899S/Q00342:N900K): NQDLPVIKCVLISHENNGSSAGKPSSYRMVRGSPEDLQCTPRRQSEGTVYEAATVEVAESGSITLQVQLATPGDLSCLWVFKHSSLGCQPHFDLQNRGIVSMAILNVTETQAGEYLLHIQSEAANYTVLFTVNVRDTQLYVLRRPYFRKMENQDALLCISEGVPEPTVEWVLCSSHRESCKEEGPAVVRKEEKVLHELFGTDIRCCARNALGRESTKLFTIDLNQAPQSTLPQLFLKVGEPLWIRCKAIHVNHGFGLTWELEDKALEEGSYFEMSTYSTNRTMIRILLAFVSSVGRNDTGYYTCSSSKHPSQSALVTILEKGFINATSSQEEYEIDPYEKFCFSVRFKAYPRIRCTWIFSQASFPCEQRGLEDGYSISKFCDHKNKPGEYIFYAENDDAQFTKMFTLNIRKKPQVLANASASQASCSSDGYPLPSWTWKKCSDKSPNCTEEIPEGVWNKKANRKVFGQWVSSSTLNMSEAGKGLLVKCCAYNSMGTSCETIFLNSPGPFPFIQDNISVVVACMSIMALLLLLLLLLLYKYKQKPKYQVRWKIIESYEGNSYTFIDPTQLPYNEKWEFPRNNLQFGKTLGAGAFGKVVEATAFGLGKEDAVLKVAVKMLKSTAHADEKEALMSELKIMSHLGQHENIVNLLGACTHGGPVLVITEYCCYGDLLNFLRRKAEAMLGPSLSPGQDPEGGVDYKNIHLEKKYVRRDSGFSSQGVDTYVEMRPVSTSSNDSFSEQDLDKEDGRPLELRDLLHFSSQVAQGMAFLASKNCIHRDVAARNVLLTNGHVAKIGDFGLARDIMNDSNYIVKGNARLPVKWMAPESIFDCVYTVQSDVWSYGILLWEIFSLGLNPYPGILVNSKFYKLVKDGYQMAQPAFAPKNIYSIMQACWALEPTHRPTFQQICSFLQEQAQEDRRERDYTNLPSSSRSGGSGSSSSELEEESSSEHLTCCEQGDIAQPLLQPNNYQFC
Text: A biological screening assay to search for novel stimulators of the Flt3 receptor was developed using NIH 3T3 cells transfected with expression vectors containing cDNA of murine and human Flt3 and the related Fms receptor. The mFlt3/Fms 3T3 cell line is a 3T3 cell line transfected with nucleic acid encoding a fusion protein consisting of the murine extracellular domain of the Flt3 receptor fused to the transmembrane and intracellular domains of the human Fms (provided by Dr. Ihor Lemischka, Princeton University, Princeton, N.J.). The Stk 3T3 cell line is a 3T3 cell line transfected with the full-length human Flt3 receptor (provided by Dr. Donald Small, Johns Hopkins University, Baltimore, Md.). The human FMS 3T3 cell line is a 3T3 cell line transfected with the full-length human Fms receptor (provided by Dr. Charles Sherr, Saint Jude Children's Research Hospital, Memphis, Tenn. Parent 3T3 cells were purchased from American Type Culture Collection (“ATCC”; Manassas, Va.). Receptor-transfected cells contained Neo resistance genes and were maintained in medium containing 750 µg/ml of G418 (Life Technologies, Rockville, Md.).
To create factor-dependence for receptor-transfected 3T3 cells, growth conditions were compromised to permit only ligands to rescue cells from death. To do this, 3T3 cell lines were assayed in 96 well plates (Becton Dickinson Labware, Lincoln Park, N.J.) containing 3,000 cells in 100 μL of serum-free medium consisting of 10% AIMV (Life Technologies) and 90% DMEM. In each experiment, samples were serially diluted two-fold across rows starting at a 1:10 dilution. Viable cells were quantitated after 3-5 days by XTT (2,3-bis[Methoxy-4-nitro-5sulfophenyl]-2H-tetrazolium-5 carboxanilide inner salt) (Sigma, St. Louis, Mo.) (Roehm et al., supra). Relative activity (units/ml) and specific activity (units/mg) are defined as the reciprocal dilution at which half-maximal stimulation of cells was detected.

[4] = target: T3, full-length human Fms receptor (Homo sapiens, UniProt P07333); experiment: Fms 3T3 biological screening assay (XTT); type: cell-based
T3 construct: The human FMS 3T3 cell line is a 3T3 cell line transfected with the full-length human Fms receptor; expressed in transfected cells; host or cells: NIH 3T3 (FMS 3T3 cell line, provided by Dr. Charles Sherr)
Text: A biological screening assay to search for novel stimulators of the Flt3 receptor was developed using NIH 3T3 cells transfected with expression vectors containing cDNA of murine and human Flt3 and the related Fms receptor. The mFlt3/Fms 3T3 cell line is a 3T3 cell line transfected with nucleic acid encoding a fusion protein consisting of the murine extracellular domain of the Flt3 receptor fused to the transmembrane and intracellular domains of the human Fms (provided by Dr. Ihor Lemischka, Princeton University, Princeton, N.J.). The Stk 3T3 cell line is a 3T3 cell line transfected with the full-length human Flt3 receptor (provided by Dr. Donald Small, Johns Hopkins University, Baltimore, Md.). […]
To create factor-dependence for receptor-transfected 3T3 cells, growth conditions were compromised to permit only ligands to rescue cells from death. […] Viable cells were quantitated after 3-5 days by XTT (2,3-bis[Methoxy-4-nitro-5sulfophenyl]-2H-tetrazolium-5 carboxanilide inner salt) (Sigma, St. Louis, Mo.) (Roehm et al., supra). Relative activity (units/ml) and specific activity (units/mg) are defined as the reciprocal dilution at which half-maximal stimulation of cells was detected. […]

T3 sequence (P07333 20-972): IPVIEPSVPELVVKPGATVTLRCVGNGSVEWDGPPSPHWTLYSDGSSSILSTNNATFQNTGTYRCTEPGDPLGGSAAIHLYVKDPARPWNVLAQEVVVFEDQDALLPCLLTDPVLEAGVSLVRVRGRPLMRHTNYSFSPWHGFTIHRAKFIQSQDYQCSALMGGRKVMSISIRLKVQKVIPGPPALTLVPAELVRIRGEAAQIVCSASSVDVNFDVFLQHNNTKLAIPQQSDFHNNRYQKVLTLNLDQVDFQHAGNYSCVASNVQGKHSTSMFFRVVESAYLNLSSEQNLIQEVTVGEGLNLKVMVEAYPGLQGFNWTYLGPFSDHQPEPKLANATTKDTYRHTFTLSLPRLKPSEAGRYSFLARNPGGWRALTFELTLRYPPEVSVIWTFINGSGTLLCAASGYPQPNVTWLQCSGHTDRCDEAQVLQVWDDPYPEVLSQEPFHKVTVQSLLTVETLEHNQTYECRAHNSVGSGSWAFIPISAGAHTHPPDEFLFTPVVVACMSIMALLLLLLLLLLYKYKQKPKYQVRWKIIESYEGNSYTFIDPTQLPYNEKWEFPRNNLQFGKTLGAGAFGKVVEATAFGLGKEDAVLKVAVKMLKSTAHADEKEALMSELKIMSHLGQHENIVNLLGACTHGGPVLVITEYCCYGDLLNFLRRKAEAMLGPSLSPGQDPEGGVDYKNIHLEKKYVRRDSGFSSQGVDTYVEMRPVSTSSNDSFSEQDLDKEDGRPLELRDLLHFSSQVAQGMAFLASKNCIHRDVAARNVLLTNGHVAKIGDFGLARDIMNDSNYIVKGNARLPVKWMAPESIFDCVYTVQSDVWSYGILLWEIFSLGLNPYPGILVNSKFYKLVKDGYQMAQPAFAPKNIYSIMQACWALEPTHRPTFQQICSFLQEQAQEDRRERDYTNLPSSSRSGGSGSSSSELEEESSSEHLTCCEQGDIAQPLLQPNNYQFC

In the case of `O=c1[nH]cc(F)c(=O)[nH]1` [5-FU, 5-fluorouracil], the “reduction of bone marrow cellularity” value [1] is given as over 90% and the “deaths from a single dose” value [2] is given as “No mice died”.

For `OC[C@H]1O[C@H](O[C@H]2O[C@H](CO)[C@@H](O)[C@H](O)[C@H]2O)[C@H](O)[C@@H](O)[C@@H]1O` [α,α-trehalose], the “potency relative to mannose” value (Dl-FRIL) is given as 3.6 fold.

B1: M-CSF: Recombinant human M-CSF, ligand of the Fms receptor (protein)
chain: EEVSEYCSHMIGSGHLQSLQRLIDSQMETSCQITFEFVDQEQLKDPVCYLKKAFLLVQDIMEDTMRFRDNTPNAIAIVQLQELSLRLKSCFTKDYEEHDKACVRTFYETPLQLLEKVKNVFNETKNLLDKDWNIFSKNCNNSFAECSSQDVVTKPDCN
With B1 the “response of parent untransfected 3T3 cells” value (untransfected 3T3 cells) was “Neither the mFlt3/Fms 3T3 cells nor the parent untransfected 3T3 cells responded”, the “response of mFlt3/Fms 3T3 cells” value [3] was “Neither the mFlt3/Fms 3T3 cells nor the parent untransfected 3T3 cells responded” and the “response of Fms 3T3 cells” value [4] was “responded to M-CSF in a dose-responsive manner”.

Source: patent US6991794B1, “Progenitor cell preservation factors and methods for and products of their use” (ImClone Systems Incorporated, priority 1997, dated 2006)
